From US8461329B2, “Isoquinoline derivative” (Taisho Pharmaceutical Co., Ltd., priority 2008, dated 2013)

These molecules were tested against T1, CRTH2 (KB8 cells) (Homo sapiens, UniProt Q9Y5Y4) (assay: CRTH2 antagonist test (PGD2-induced intracellular calcium ion concentration increase in KB8 cells)). Conditions: PGD2 final concentration 100 nM, Fluo-4-AM fluorescence, read-out: antagonist activity (IC50 value, inhibition of calcium ion concentration increase).
T1 construct: host or cells: KB8 cells (human CRTH2 expression cell)
T1 sequence (Q9Y5Y4 1-395): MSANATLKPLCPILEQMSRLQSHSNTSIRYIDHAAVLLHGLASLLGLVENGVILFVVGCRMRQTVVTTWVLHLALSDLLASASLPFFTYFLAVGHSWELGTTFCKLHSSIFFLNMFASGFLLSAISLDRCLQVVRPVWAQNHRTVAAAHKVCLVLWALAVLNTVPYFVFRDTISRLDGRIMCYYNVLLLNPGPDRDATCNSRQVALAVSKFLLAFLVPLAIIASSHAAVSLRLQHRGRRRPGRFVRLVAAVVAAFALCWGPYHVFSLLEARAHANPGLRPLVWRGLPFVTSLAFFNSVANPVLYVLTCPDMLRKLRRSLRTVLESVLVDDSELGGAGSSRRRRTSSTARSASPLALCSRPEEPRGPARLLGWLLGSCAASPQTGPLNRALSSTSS
Assay type: cell-based
Protocol: The antagonist activity of the compound of the present invention was considered by using the intracellular calcium ion concentration increase reaction induced when the prostaglandin D2 was added to KB8 cells.
Fluo-4-AM (4-(6-acetoxymethoxy-2,7-difluoro-3-oxo-9-xanthenyl)-4′-methyl-2,2′-(ethylenedioxy)dianilide-N,N,N′,N′-tetraacetic acid tetrakis(acetoxymethyl) ester (SIGMA, final concentration: 1 μM) was added to KB8 cells, and the cells were incubated at 37° C. for 30 min, washed with phosphate buffer (Invitrogen), and then suspended in Hank's balanced salt solution (Invitrogen)) containing a reaction buffer solution (10 mM HEPES (Invitrogen), and 1 mM calcium chloride (SIGMA). The suspension was dispensed in a 96 well plate (Nunc) so that 2×10^5 cells/well were placed, and the compound of the present invention and PGD2 (final concentration: 100 nM) were added. The fluorescence intensity thereof was measured over time by using FDSS6000 (Hamamatsu Photonics), and thus the maximum fluorescence intensity value “d” was obtained. The same procedure was carried out in the absence of the compound, and the maximum fluorescence intensity value “e” was obtained; and the same procedure was carried out in the absence of the compound and […], and the maximum fluorescence intensity value “f” was obtained.
The calcium ion concentration increase inhibition rate of a compound was calculated by the following calculation formula: Inhibitory rate(%)=[1−(d−f)/(e−f)]×100
That is to say, by using calcium ion concentration increase inhibitory rates of compounds to be tested having various concentrations, the IC50 value was calculated according to a dose-dependent inhibition curve analyzed by using XLfit (IDBS) as a data analysis software, and the value was defined as an indicator of the antagonist activity. In Tables, A denotes an inhibitory activity showing the IC50 value of less than 50 nM; B denotes an inhibitory activity showing the IC50 value of 50 nM or greater and less than 500 nM; C denotes an inhibitory activity showing the IC50 value of 500 nM or greater and less than 1000 nM; and D denotes an inhibitory activity showing the IC50 value of 1000 nM or greater.
NC(=O)Cc1cnc(Cc2ccc(C(=O)NCCc3ccc(Cl)cc3)cc2)c2ccccc12 [Example 256, 4-{[4-(2-amino-2-oxoethyl)isoquinolin-1-yl]methyl}-N-[2-(4-chlorophenyl)ethyl]benzamide] was tested, and the IC50 was at least 1 µM.
With O=C(O)Cc1cnc(C(=O)c2ccc(NC(=O)c3cnccn3)cc2)c2ccccc12 [Example 69] the IC50 was at least 1 µM.
O=C(O)Cc1cnc(C(=O)c2ccc(NC(=O)c3c[nH]c4ncccc34)cc2)c2ccccc12 [Example 95] gave an IC50 of 0.05 to 0.5 µM.
Work on O=C(O)Cc1cnc(Cc2ccc(C(=O)NCCOc3ccc(Cl)cc3)cc2)c2ccccc12 [Example 178] yielded an IC50 of 0.05 to 0.5 µM.
In the case of CCCCCCc1ccc(CCNC(=O)c2ccc(Cc3ncc(CC(=O)O)c4ccccc34)cc2)cc1 [Example 238], the IC50 is reported as under 0.05 µM.
In the case of O=C(O)Cc1cnc(C(=O)c2ccc(NC(=O)c3c[nH]c4ccccc34)cc2)c2ccccc12 [Example 85], the IC50 is reported as under 0.05 µM.
With O=C(O)Cc1cnc(C(=O)c2ccc(NC(=O)c3ccc(O)cc3)cc2)c2ccccc12 [Example 89] the IC50 was under 0.05 µM.
O=C(O)Cc1cnc(Cc2ccc(C(=O)NCCC3CCCCC3)cc2)c2ccccc12 [Example 187] gave an IC50 of under 0.05 µM.
With O=C(O)Cc1cnc(C(=O)c2ccc(NC(=O)c3cc(Cl)cc(Cl)c3)cc2)c2ccccc12 [Example 37] the IC50 was under 0.05 µM.
Molecule O=C(O)Cc1cnc(Cc2ccc(C(=O)NCCN3CCOCC3)cc2)c2ccccc12 [Example 185] has an IC50 of at least 1 µM.
In the case of O=C(O)Cc1cnc(Cc2ccc(C(=O)NCCC3=CCCCC3)cc2)c2ccccc12 [Example 188], the IC50 is reported as 0.05 to 0.5 µM.
Molecule O=C(O)Cc1cnc(Cc2ccc(C(=O)NCCc3cc(Cl)ccc3Cl)cc2)c2ccccc12 [Example 224] has an IC50 of 0.05 to 0.5 µM.
Molecule COc1ccccc1C(=O)Nc1ccc(C(=O)c2ncc(CC(=O)O)c3ccccc23)cc1 [Example 40] has an IC50 of at least 1 µM.
O=C(O)Cc1cnc(C(=O)c2ccc(NC(=O)C3CCCCC3)cc2)c2ccccc12 [Example 76] was tested, and the IC50 was 0.05 to 0.5 µM.
Molecule O=C(O)Cc1cnc(C(=O)c2ccc(NC(=O)c3ccc(F)cc3Cl)cc2)c2ccccc12 [Example 47] has an IC50 of 0.5 to 1 µM.
Work on CC(C(=O)O)c1cnc(Cc2ccc(C(=O)NCCc3ccc(Cl)cc3)cc2)c2ccccc12 (stereo not shown) [Example 254, 2-[1-(4-{[2-(4-chlorophenyl)ethyl]carbamoyl}benzyl)isoquinolin-4-yl]propanoic acid] yielded an IC50 of 0.5 to 1 µM.
O=C(O)Cc1cnc(Cc2ccc(C(=O)NCCc3c(F)cccc3Cl)cc2)c2ccccc12 [Example 190] was tested, and the IC50 was 0.05 to 0.5 µM.
For O=C(O)Cc1cnc(Cc2ccc(C(=O)NCCc3ccc(C4CCCCC4)cc3)cc2)c2ccccc12 [Example 237], the IC50 was under 0.05 µM.
COc1ccc(C(=O)Nc2ccc(C(=O)c3ncc(CC(=O)O)c4ccccc34)cc2)cc1Cl [Example 108] was tested, and the IC50 was under 0.05 µM.
O=C(O)Cc1cnc(C(=O)c2ccc(NC(=O)c3ccc(C4CCCCC4)cc3)cc2)c2ccccc12 [Example 114] was tested, and the IC50 was under 0.05 µM.
O=C(O)Cc1cnc(Cc2ccc(C(=O)NCCc3cc4ccccc4o3)cc2)c2ccccc12 [Example 249] gave an IC50 of under 0.05 µM.
For O=C(O)Cc1cnc(Cc2ccc(C(=O)NCCc3ccccc3)cc2)c2ccccc12 [Example 161, (1-{4-[(2-phenylethyl)carbamoyl]benzyl}isoquinolin-4-yl)acetic acid], the IC50 was 0.05 to 0.5 µM.
For COc1ccc2[nH]c(CCNC(=O)c3ccc(Cc4ncc(CC(=O)O)c5ccccc45)cc3)cc2c1 [Example 236], the IC50 was under 0.05 µM.
Cc1ccc(CCNC(=O)c2ccc(Cc3ncc(CC(=O)O)c4ccccc34)cc2)cc1F [Example 204] showed an IC50 of under 0.05 µM.
CS(=O)(=O)c1ccc(C(=O)Nc2ccc(C(=O)c3ncc(CC(=O)O)c4ccccc34)cc2)cc1 [Example 74] gave an IC50 of 0.05 to 0.5 µM.
In the case of O=C(O)Cc1cnc(C(=O)c2ccc(NC(=O)c3c(F)cccc3Cl)cc2)c2ccccc12 [Example 36], the IC50 is reported as at least 1 µM.
O=C(O)Cc1cnc(Cc2ccc(C(=O)NCCc3ccc4ccccc4n3)cc2)c2ccccc12 [Example 202] was tested, and the IC50 was 0.05 to 0.5 µM.
Molecule Cc1ccc(C)c(C(=O)Nc2ccc(C(=O)c3ncc(CC(=O)O)c4ccccc34)cc2)c1 [Example 44] has an IC50 of 0.05 to 0.5 µM.
O=C(O)Cc1cnc(Cc2ccc(C(=O)NCCc3nc4ccccc4s3)cc2)c2ccccc12 [Example 250] gave an IC50 of under 0.05 µM.
In the case of O=C(O)Cc1cnc(Cc2ccc(C(=O)Nc3ccc(Cl)cc3)cc2)c2ccccc12 [Example 159], the IC50 is reported as under 0.05 µM.
For CC(C)(C)c1ccc(C(=O)Nc2ccc(C(=O)c3ncc(CC(=O)O)c4ccccc34)cc2)cc1 [Example 111], the IC50 was under 0.05 µM.
Molecule O=C(O)Cc1cnc(C(=O)c2ccc(NC(=O)c3cc4ccccc4cn3)cc2)c2ccccc12 [Example 113] has an IC50 of under 0.05 µM.
O=C(O)Cc1cnc(Cc2ccc(C(=O)NCCc3ccc(Cl)cc3Cl)cc2)c2ccccc12 [Example 180] gave an IC50 of under 0.05 µM.
O=C(O)Cc1cnc(Cc2ccc(C(=O)NCCc3cccc(Cl)c3Cl)cc2)c2ccccc12 [Example 226] gave an IC50 of under 0.05 µM.
CCCCCCc1ccc(C(=O)Nc2ccc(C(=O)c3ncc(CC(=O)O)c4ccccc34)cc2)cc1 [Example 120] gave an IC50 of under 0.05 µM.
Work on O=C(O)Cc1cnc(C(=O)c2ccc(NC(=O)CCC3CCCCC3)cc2)c2ccccc12 [Example 77] yielded an IC50 of under 0.05 µM.
COc1cc(C(=O)Nc2ccc(C(=O)c3ncc(CC(=O)O)c4ccccc34)cc2)ccc1C [Example 100] showed an IC50 of under 0.05 µM.
O=C(O)Cc1cnc(Cc2ccc(C(=O)NCCc3ccc(F)cc3)cc2)c2ccccc12 [Example 200] gave an IC50 of 0.05 to 0.5 µM.
O=C(O)Cc1cnc(Cc2ccc(S(=O)(=O)NCCc3ccc(Cl)cc3)cc2)c2ccccc12 [Example 152, [1-(4-{[2-(4-chlorophenyl)ethyl]sulfamoyl}benzyl)isoquinolin-4-yl]acetic acid] was tested, and the IC50 was 0.05 to 0.5 µM.
For CC(C)(C)c1ccc(CCNC(=O)c2ccc(Cc3ncc(CC(=O)O)c4ccccc34)cc2)cc1 [Example 193], the IC50 was under 0.05 µM.
In the case of Cc1ccc(F)cc1C(=O)Nc1ccc(C(=O)c2ncc(CC(=O)O)c3ccccc23)cc1 [Example 62], the IC50 is reported as 0.05 to 0.5 µM.
Work on O=C(O)Cc1cnc(C(=O)c2ccc(NC(=O)c3csc4ccccc34)cc2)c2ccccc12 [Example 88] yielded an IC50 of under 0.05 µM.
For Cc1ccc2sc(C(=O)Nc3ccc(C(=O)c4ncc(CC(=O)O)c5ccccc45)cc3)cc2c1 [Example 102], the IC50 was under 0.05 µM.
Work on O=C(O)Cc1cnc(C(=O)c2ccc(NC(=O)c3ccc(C(=O)c4ccccc4)cc3)cc2)c2ccccc12 [Example 91] yielded an IC50 of under 0.05 µM.
O=C(O)Cc1cnc(C(=O)c2ccc(NC(=O)c3cccc(Cl)c3F)cc2)c2ccccc12 [Example 70] was tested, and the IC50 was 0.05 to 0.5 µM.
O=C(O)Cc1cnc(Cc2ccc(C(=O)NCCc3ccccn3)cc2)c2ccccc12 [Example 175] showed an IC50 of at least 1 µM.
Work on O=C(O)Cc1cnc(C(=O)c2ccc(NC(=O)c3cc4ccccc4s3)cc2)c2ccccc12 [Example 119] yielded an IC50 of under 0.05 µM.
Cc1cc(CCNC(=O)c2ccc(Cc3ncc(CC(=O)O)c4ccccc34)cc2)ccc1Cl [Example 245] gave an IC50 of under 0.05 µM.
O=C(O)Cc1cnc(C(=O)c2ccc(NC(=O)c3cnc4ccccc4n3)cc2)c2ccccc12 [Example 86] gave an IC50 of 0.05 to 0.5 µM.
With O=C(O)Cc1cnc(C(=O)c2ccc(NC(=O)c3ccc4occc4c3)cc2)c2ccccc12 [Example 116] the IC50 was under 0.05 µM.
For O=C(O)Cc1cnc(Cc2ccc(C(=O)NCCc3ccccc3F)cc2)c2ccccc12 [Example 181], the IC50 was 0.05 to 0.5 µM.
Work on O=C(O)Cc1cnc(C(=O)c2ccc(NC(=O)C3(c4ccc(Cl)cc4)CCCC3)cc2)c2ccccc12 [Example 59] yielded an IC50 of 0.05 to 0.5 µM.
O=C(O)Cc1cnc(C(=O)c2ccc(NC(=O)C3Cc4ccccc4C3)cc2)c2ccccc12 [Example 60] showed an IC50 of 0.05 to 0.5 µM.
Molecule O=C(O)Cc1cnc(C(=O)c2ccc(NC(=O)c3cnc4ccccc4c3)cc2)c2ccccc12 [Example 112] has an IC50 of under 0.05 µM.
For O=C(O)Cc1cnc(C(=O)c2ccc(COCCc3ccc(Cl)cc3)cc2)c2ccccc12 [Example 146, {1-[(4-{[2-(4-chlorophenyl)ethoxy]methyl}phenyl)carbonyl]isoquinolin-4-yl}acetic acid], the IC50 was 0.05 to 0.5 µM.
In the case of O=C(O)Cc1cnc(Cc2ccc(C(=O)NCCc3ccc(OC(F)(F)F)cc3)cc2)c2ccccc12 [Example 203], the IC50 is reported as under 0.05 µM.
With O=C(O)Cc1cnc(C(=O)c2ccc(NC(=O)c3ccc4cccnc4n3)cc2)c2ccccc12 [Example 105] the IC50 was 0.5 to 1 µM.
With C=Cc1ccc(C(=O)Nc2ccc(C(=O)c3ncc(CC(=O)O)c4ccccc34)cc2)cc1 [Example 64] the IC50 was under 0.05 µM.
